The values that follow come from patent US10710997B2, “Isoquinoline amide and isoquinoline amide-substituted compounds as mGluR4 allosteric potentiators, compositions, and methods of treating neurological dysfunction” (Vanderbilt University, priority 2016, dated 2020).

The target in data set [1] is T1, human mGluR4 (Homo sapiens, UniProt Q14833).
T1 construct: expressed in transfected cells; host or cells: CHO cells
The data set is described as follows: human mGluR4 potentiation assay, CHO cells transfected with human mGluR4, Ca2+-sensitive dye. The class given is cell-based. The note with it: human mGlu4; read-out: hmGlu4 EC50. How it is done:
The disclosed compounds and compositions can be evaluated for their ability to act as a potentiator of metabotropic glutamate receptor activity, in particular mGluR4 activity, by any suitable known methodology known in the art. For example, Chinese Hamster Ovary (CHO) cells transfected with human mGluR4 or HEK cells co-transfected with rat mGluR4 and the G-protein regulated Inwardly Rectifying Potassium channel (GIRK) were plated in clear bottom assay plates for assay in a Hamamatsu FDSS Fluorometric Plate Reader. The cells were loaded with either a Ca2+-sensitive fluorescent dye or the thallium responsive dye and the plates were washed and placed into a suitable kinetic plate reader. For human mGluR4 assays, a fluorescence baseline was established for 3-5 seconds, the disclosed compounds were then added to the cells, and the response in cells was measured. Approximately two and a half minutes later, a concentration of mGluR4 orthosteric agonist (e.g. glutamate or L-AP4) eliciting approximately 20% (EC20) of the maximal agonist response was added to the cells, and the response was measured. Two minutes later, a concentration of mGluR4 agonist (e.g. glutamate or L-AP4) eliciting 80% (EC80) of the maximal agonist response was added to the cells, and the response was measured. For rat mGluR4/GIRK experiments, a baseline was established for approximately five seconds, disclosed compounds were added, and either an EC20 or EC80 concentration of agonist was added approximately two and one half minutes later. Potentiation of the agonist response of mGluR4 by the disclosed compounds was observed as an increase in response to the EC20 concentration of agonist in the presence of compound compared to the response to agonist in the absence of compound. Similarly, antagonism of the agonist response of mGluR4 by the disclosed compounds was observed as a decrease in response to the EC80 concentration of agonist in the presence of compound compared to the response to agonist in the absence of compound.
The above described assay operated in two modes. In the first mode, a range of concentrations of the disclosed compounds are added to cells, followed by a single fixed concentration of agonist. If the compound acts as a potentiatior, an EC50 value for potentiation and a maximum extent of potentiation by the compound at this concentration of agonist is determined by non-linear curve fitting. If the compound acts as a noncompetitive antagonist, an IC50 value is determined by non-linear curve fitting. In the second mode, several fixed concentrations of the disclosed compounds are added to various wells on a plate, followed by a range in concentrations of agonist for each concentration of disclosed compound. The EC50 values for the agonist at each concentration of compound are determined by non-linear curve fitting. A decrease in the EC50 value of the agonist with increasing concentrations of the sample compound (a leftward shift of the agonist concentration-response curve) is an indication of the degree of mGluR4 potentiation at a given concentration of the sample compound. A decrease in the maximal response of the agonist with increasing concentrations of the sample compounds, with or without a rightward shift in agonist potency, is an indication of the degree of noncompetitive antagonism at mGluR4. The second mode also indicates whether the sample compounds also affect the maximum response to mGluR4 to agonists.

Data set [2] can be described thus: in vitro DMPK: human intrinsic and predicted hepatic clearance. The note with it: for Human CLINT: in vitro, unit assumed; for Human CLHEP: predicted human clearance, human hepatic blood flow 20 mL/min/kg. Type of data set: in vitro ADME. From the text: (§1) As the only drug that interact with mGlu4 is free drug, the compounds of the present invention have unexpectedly exceptional profiles as putative drug candidates.

A short description of data set [3]: in vitro DMPK: rat intrinsic and predicted hepatic clearance. The class given is in vitro ADME. The conditions noted are these: for Rat CLINT: in vitro, unit assumed; for Rat CLHEP: predicted.
Excerpt: as §1

The nature of data set [4]: free drug level (fu) in human plasma. The class given is in vitro ADME.
Excerpt: as §1

Data set [5] is described as follows: free drug level (fu) in rat plasma. The class given is in vitro ADME.
Excerpt: as §1

The nature of data set [6]: rat brain homogenate binding (BHB). The conditions noted are these: read-out: Rat BHB fu. The class given is in vitro ADME.
Excerpt: as §1

The target in data set [7] is mGlu4 (UniProt Q14833). The conditions noted are these: read-out: mGlu4 PAM EC50.

For orientation: EC50 means the concentration needed to bring the measured effect to its halfway point.

T1 sequence (Q14833 33-912): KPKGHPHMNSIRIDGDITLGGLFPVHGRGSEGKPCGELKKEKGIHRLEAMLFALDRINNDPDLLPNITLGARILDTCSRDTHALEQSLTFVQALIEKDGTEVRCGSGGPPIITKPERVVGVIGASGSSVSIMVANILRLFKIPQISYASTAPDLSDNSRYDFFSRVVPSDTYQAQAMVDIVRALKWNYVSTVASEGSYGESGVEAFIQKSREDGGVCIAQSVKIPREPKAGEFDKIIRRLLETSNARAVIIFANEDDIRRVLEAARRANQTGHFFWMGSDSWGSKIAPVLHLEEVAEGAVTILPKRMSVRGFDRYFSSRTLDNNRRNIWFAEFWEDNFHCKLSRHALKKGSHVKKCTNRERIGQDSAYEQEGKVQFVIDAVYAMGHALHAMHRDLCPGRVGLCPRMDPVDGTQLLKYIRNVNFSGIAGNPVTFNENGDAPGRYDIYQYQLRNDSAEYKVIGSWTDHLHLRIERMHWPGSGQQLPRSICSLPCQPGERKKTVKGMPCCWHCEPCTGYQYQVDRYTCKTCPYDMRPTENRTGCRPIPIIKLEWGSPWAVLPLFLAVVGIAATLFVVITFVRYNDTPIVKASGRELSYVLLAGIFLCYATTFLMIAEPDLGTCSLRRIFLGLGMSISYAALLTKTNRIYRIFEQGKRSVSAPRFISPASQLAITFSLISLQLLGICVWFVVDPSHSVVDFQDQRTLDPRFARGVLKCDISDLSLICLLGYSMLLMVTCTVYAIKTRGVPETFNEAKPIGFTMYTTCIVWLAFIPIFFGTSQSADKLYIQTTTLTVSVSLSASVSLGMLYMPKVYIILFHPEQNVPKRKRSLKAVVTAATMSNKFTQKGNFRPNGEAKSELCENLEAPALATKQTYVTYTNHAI

Regarding `O=C(c1nccc2cc(Nc3n[nH]c4cccnc34)ccc12)N1CC[C@H](F)C1` [Example 5], the EC50 in data set [1] worked out at 366 nM. In addition, the Human CLINT in data set [2] is 6.91 mL/min/kg. Also, the “Human CLHEP” value in data set [2] is given as 5.20 mL/min/kg. Also, in data set [3], the Rat CLINT was 32.5 mL/min/kg. Moreover, the Rat CLHEP in data set [3] is 22.2 mL/min/kg. Further, the fraction unbound in data set [4] came to 0.094; in data set [5] it was 0.327; in data set [6] it was 0.095.

On to `CN(C(=O)c1nccc2cc(Nc3n[nH]c4ncccc34)ccc12)C1CC(F)C1` (centres unmarked) [Compound 22], for which the EC50 in data set [7] stood at 1800 nM.

Take `O=C(NC1CC(F)(F)C1)c1nccc2cc(Nc3n[nH]c4cccnc34)ccc12` [Example 9]: in data set [1], the EC50 amounted to 9.91 nM. Also, in data set [2], the Human CLINT was 9.01 mL/min/kg and the “Human CLHEP” value is reported as 6.30 mL/min/kg. Further, in data set [3], the Rat CLINT was 32.8 mL/min/kg and the Rat CLHEP was 22.3 mL/min/kg. The fraction unbound in data set [4] was determined as 0.09. Further, the fraction unbound in data set [5] came to 0.076. For the same compound, in data set [6], the fraction unbound was 0.01.

Turning to `O=C(c1nccc2cc(Nc3n[nH]c4cccnc34)ccc12)N1CCCC(F)(F)C1` [Example 4], the EC50 in data set [1] was determined as 117 nM. Besides, in data set [2], the Human CLINT was 172 mL/min/kg and the “Human CLHEP” value is listed as 18.7 mL/min/kg. Also, in data set [3], the Rat CLINT is 885 mL/min/kg and the Rat CLHEP is 64.9 mL/min/kg. Further, the fraction unbound in data set [4] turned out to be 0.015. The same compound registered a fraction unbound in data set [5] of 0.158. The fraction unbound in data set [6] was found to be 0.05.

Consider `O=C(NC1CC(F)(F)C1)c1nccc2cc(Nc3n[nH]c4ncccc34)ccc12` [Example 27], for which the EC50 in data set [1] was determined as 56.2 nM. For the same compound, in data set [2], the Human CLINT was 7.64 mL/min/kg and the “Human CLHEP” value is recorded as 5.60 mL/min/kg. Also, in data set [3], the Rat CLINT is 37 mL/min/kg and the Rat CLHEP is 24.2 mL/min/kg. The compound further returned a fraction unbound in data set [4] of 0.073. The fraction unbound in data set [5] is 0.075. The fraction unbound in data set [6] amounted to 0.009.

As for `CN(C(=O)c1nccc2cc(Nc3n[nH]c4ncccc34)ccc12)C1CCOC1` (centres unmarked) [Compound 25], the EC50 in data set [7] is 4370 nM.

Take `CS(=O)(=O)N1CCN(C(=O)c2nccc3cc(Nc4n[nH]c5cccnc45)ccc23)CC1` [Example 6]: the EC50 in data set [1] was 268 nM. In data set [2], the Human CLINT was 7.44 mL/min/kg and the “Human CLHEP” value is given as 5.49 mL/min/kg. Further, in data set [3], the Rat CLINT is 230 mL/min/kg and the Rat CLHEP is 53.7 mL/min/kg. This compound also registered a fraction unbound in data set [4] of 0.134. This compound also had a fraction unbound in data set [5] of 0.328. For the same compound, the fraction unbound in data set [6] worked out at 0.085.

Consider `CN(C(=O)c1nccc2cc(Nc3n[nH]c4cccnc34)ccc12)C1CCOC1` (centres unmarked) [Compound 26], for which, in data set [7], the EC50 is 1850 nM.

As to `COC1CC(NC(=O)c2nccc3cc(Nc4n[nH]c5cccnc45)ccc23)C1` (centres unmarked) [Example 10], the EC50 in data set [1] stood at 25.5 nM. Moreover, in data set [2], the Human CLINT was 10.2 mL/min/kg and the “Human CLHEP” value was 6.86 mL/min/kg. In data set [3], the Rat CLINT is 26.7 mL/min/kg and the Rat CLHEP is 19.3 mL/min/kg. The compound also displayed a fraction unbound in data set [4] of 0.059. This compound returned a fraction unbound in data set [5] of 0.089. Further, the fraction unbound in data set [6] was determined as 0.082.

Regarding `CN(C(=O)c1nccc2cc(Nc3n[nH]c4ncccc34)ccc12)C1CC(F)(F)C1` [Compound 24], in data set [7], the EC50 was determined as 1240 nM.

Take `O=C(NC1CC(F)C1)c1nccc2cc(Nc3n[nH]c4cccnc34)ccc12` (centres unmarked) [Example 8]: the EC50 in data set [1] was 21 nM. Further, in data set [2], the Human CLINT was 6.61 mL/min/kg and the “Human CLHEP” value is given as 5.03 mL/min/kg. In data set [3], the Rat CLINT was 32.4 mL/min/kg and the Rat CLHEP is 22.2 mL/min/kg. The fraction unbound in data set [4] is 0.11. The compound also returned a fraction unbound in data set [5] of 0.107. The fraction unbound in data set [6] was found to be 0.02.

For the compound `CN(C(=O)c1nccc2cc(Nc3n[nH]c4cccnc34)ccc12)C1CC(F)C1` (centres unmarked) [Compound 20], the EC50 in data set [7] stood at 546 nM.

For the compound `O=C(c1nccc2cc(Nc3n[nH]c4ncccc34)ccc12)N1CCC(F)(F)CC1` [Example 28], the EC50 in data set [1] amounted to 511 nM. Also, the Human CLINT in data set [2] was 83.4 mL/min/kg. The “Human CLHEP” value in data set [2] is listed as 16.8 mL/min/kg. In data set [3], the Rat CLINT was 328 mL/min/kg. Besides, in data set [3], the Rat CLHEP is 57.7 mL/min/kg. For the same compound, the fraction unbound in data set [4] was 0.218; in data set [5], 0.179; in data set [6] it was 0.028.

As for `O=C(NC1CCOC1)c1nccc2cc(Nc3n[nH]c4cccnc34)ccc12` (centres unmarked) [Example 11], in data set [1], the EC50 was 59.9 nM. For the same compound, in data set [2], the Human CLINT was 0.63 mL/min/kg and the “Human CLHEP” value is on record as 0.61 mL/min/kg. Moreover, in data set [3], the Rat CLINT was 2.82 mL/min/kg and the Rat CLHEP was 2.71 mL/min/kg. Moreover, in data set [4], the fraction unbound worked out at 0.188. The compound further came in with a fraction unbound in data set [5] of 0.229. In data set [6], the fraction unbound came to 0.068.

In the case of `O=C(c1nccc2cc(Nc3n[nH]c4cccnc34)ccc12)N1CCC(F)(F)CC1` [Example 7], the EC50 in data set [1] is 57.7 nM. Further, in data set [2], the Human CLINT is 87.4 mL/min/kg and the “Human CLHEP” value is reported as 16.9 mL/min/kg. In data set [3], the Rat CLINT was 568 mL/min/kg and the Rat CLHEP is 62.3 mL/min/kg. The same compound showed a fraction unbound in data set [4] of 0.094. Further, in data set [5], the fraction unbound was determined as 0.168. In addition, the fraction unbound in data set [6] stood at 0.055.

`CN(C(=O)c1nccc2cc(Nc3n[nH]c4cccnc34)ccc12)C1CC(F)(F)C1` [Compound 23]: the EC50 in data set [7] worked out at 339 nM.
